Data: patent publication US20240270701A1, “BETA ADRENERGIC AGONIST AND METHODS OF USING THE SAME” (Curasen Therapeutics, Inc., priority 2021, published 2024)
Where two headings read alike, the source gives them in different places.

How the values were obtained:
B1-AR = target: T1, B1-AR (Homo sapiens, UniProt P08588); test: cAMP Gs dynamic HTRF assay, cells expressing beta-adrenergic receptor (CHO-K1), B1-AR; type: cell-based; conditions: for EC50: cAMP HTRF, read-out: pEC50 [B1-AR] (converted); for Emax: relative to full agonist isoproterenol, read-out: Emax (% iso) (%) [B1-AR]
T1 construct: expressed in transfected cells; host or cells: CHO-K1
T1 sequence (P08588 whole entry, species assumed): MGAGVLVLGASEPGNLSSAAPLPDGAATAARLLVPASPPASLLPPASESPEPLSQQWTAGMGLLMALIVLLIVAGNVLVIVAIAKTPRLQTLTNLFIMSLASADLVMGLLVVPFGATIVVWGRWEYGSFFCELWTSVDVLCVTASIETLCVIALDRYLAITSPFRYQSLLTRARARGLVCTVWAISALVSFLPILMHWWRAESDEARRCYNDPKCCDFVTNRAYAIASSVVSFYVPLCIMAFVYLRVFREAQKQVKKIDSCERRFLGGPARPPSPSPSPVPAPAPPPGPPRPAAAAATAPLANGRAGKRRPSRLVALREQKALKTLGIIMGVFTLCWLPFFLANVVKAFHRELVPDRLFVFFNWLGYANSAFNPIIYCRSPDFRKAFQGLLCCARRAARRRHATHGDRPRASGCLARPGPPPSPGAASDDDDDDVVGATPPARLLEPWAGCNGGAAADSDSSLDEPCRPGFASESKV
Method: (§1) cAMP homogeneous time-resolved fluorescence (HTRF): experimental methods. Compound efficacy is determined using the cAMP Gs dynamic HTRF assay (Cisbio, catalog #62AM4PEC) largely following the manufacturer's instructions, also detailed below.
(§2) Standard serial dilution curves are 10-point, 5-fold dilutions starting from a highest concentration of 10 μM. Controls present on every assay plate are 0.1% DMSO (vehicle control), 1 μM isoproterenol (full beta-adrenergic agonist control) and […] xamoterol (partial beta-adrenergic agonist control). […] Assay plates are centrifuged at 500×g for 10 seconds. Compounds and IBMX are prepared at 2× final dose to compensate for addition of cells.
(§3) Cell preparation: 1× stimulation buffer, washing PBS (Dulbecco's phosphate-buffered saline, − Mg − Ca; Caisson Labs, catalog #PBL01), assay PBS (Dulbecco's phosphate-buffered saline, + Mg, + Ca; Caisson Labs, catalog #PBL02) and Versene (0.02% EDTA disodium salt solution in PBS without calcium or magnesium; Caisson Labs, catalog #EDL01) are pre-warmed to 37° C. Cells expressing beta-adrenergic receptor were washed in washing PBS to remove growth medium and then released from the surface by incubating with Versene for 5-10 minutes at 37° C. Cells are harvested using assay PBS, counted manually by hemocytometer or by an automated cell counter, pelleted by centrifugation (200×g, 5 minutes) and resuspended in 37° C. 1× stimulation buffer to a final density of 1.5×10^6 cells/mL. 5 μL of the suspended cell solution (7500 cell total) are added to all wells of the 384 well assay plate, the assay plate was covered with an Axygen® plate seal (Corning PCR-SP) and incubated in a humidified 37° C. environment supplemented with 5% CO2 for 30 minutes.
(§4) HTRF reagent addition, reading and data analysis: After 30 minutes of cell stimulation with test compound, the assay plates are centrifuged at 500×g for 10 seconds, and incubation was stopped with the addition of 5 μL cAMP-D2 acceptor, diluted 1:21 in detection and lysis buffer 2 (Cisbio 62CL2FDF) was added to all cells. Subsequently, 5 μL Anti-cAMP-Eu Donor, diluted 1:21 in detection and lysis buffer 2, was added to cells. Plates were sealed and reactions gently ‘vortexed’ at 900 rpm on a Heidolph Titramax 1000 for at least 30 minutes at room temperature. Plates are centrifuged again at 500×g for 10 seconds, and HTRF was measured using a Tecan Spark plate reader at 50 flashes per well. […] Potency estimates (EC50 and pEC50) are derived from the four-parameter nonlinear regression of the concentration-effect curve and an estimate of relative efficacy is determined by comparing the magnitude of the test compound HTRF signal window (min−max dose) with the signal window of the full agonist control, isoproterenol.

B2-AR = target: T2, B2-AR (Homo sapiens, UniProt P07550); test: cAMP Gs dynamic HTRF assay, cells expressing beta-adrenergic receptor (CHO-K1), B2-AR; type: cell-based; conditions: for EC50: cAMP HTRF, read-out: pEC50 [B2-AR] (converted); for Emax: relative to full agonist isoproterenol, read-out: Emax (% iso) (%) [B2-AR]
T2 construct: expressed in transfected cells; host or cells: CHO-K1
T2 sequence (P07550 whole entry, species assumed): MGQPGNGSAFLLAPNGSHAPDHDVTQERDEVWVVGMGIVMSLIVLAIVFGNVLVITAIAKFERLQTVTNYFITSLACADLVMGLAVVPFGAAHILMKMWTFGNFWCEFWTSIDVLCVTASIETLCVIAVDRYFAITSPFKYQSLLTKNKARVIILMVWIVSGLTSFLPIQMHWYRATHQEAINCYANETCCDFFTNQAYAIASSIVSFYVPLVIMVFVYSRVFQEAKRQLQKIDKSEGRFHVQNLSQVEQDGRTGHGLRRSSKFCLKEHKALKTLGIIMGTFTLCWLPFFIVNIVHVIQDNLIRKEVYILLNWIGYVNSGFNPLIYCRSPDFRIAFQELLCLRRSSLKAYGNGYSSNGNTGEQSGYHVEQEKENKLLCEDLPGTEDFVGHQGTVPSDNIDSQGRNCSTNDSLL
Method: as §1, §2, §3, §4

Row | Structure (SMILES) | EC50 (B1-AR) | Emax (B1-AR) | EC50 (B2-AR; CHO-K1 cells) | Emax (B2-AR; CHO-K1 cells) | Emax (B2-AR; CHO-K1, CHO-K1 cells)
1 | Cc1c(F)cc([C@@H](O)CNC(C)(C)C)c2cn[nH]c12 [I-62] | < 10 nM | 70 to 90% | < 10 nM | 70 to 90% | –
2 | Cc1nc(N)ccc1[C@@H](O)CNC1(C)CCC1 [I-154] | 100 to 1000 nM | > 90% | < 10 nM | – | > 90%
3 | Cc1nc(N)c(Cl)cc1[C@H](CO)NC1CC(F)(F)C1 [I-185] | > 1000 nM | < 50% | > 1000 nM | < 50% | –
4 | CC(C)(NC[C@H](O)c1ccc(F)c2[nH]ncc12)C1CC1 [I-21] | < 10 nM | > 90% | < 10 nM | > 90% | –
5 | CCc1n[nH]c2cccc([C@@H](O)CNC(C)(C)C)c12 [I-172] | 100 to 1000 nM | 70 to 90% | 100 to 1000 nM | 50 to 70% | –
6 | CCC(C)(C)NC[C@H](O)c1cc(F)cc2[nH]ncc12 [I-51] | < 10 nM | 70 to 90% | < 10 nM | > 90% | –
7 | CC(C)CNC[C@H](O)c1ccc(Cl)c2[nH]ncc12 [I-117] | 10 to 100 nM | 50 to 70% | 10 to 100 nM | 70 to 90% | –
8 | CC(C)(C)NC[C@H](O)c1cc(C2CC2)cc2[nH]ncc12 [I-103] | > 1000 nM | 50 to 70% | 10 to 100 nM | – | 50 to 70%
9 | O[C@@H](CNC1CC1)c1cccc2[nH]nc(F)c12 [I-140] | < 10 nM | > 90% | < 10 nM | > 90% | –
10 | CC(C)[C@@H](C)NC[C@H](O)c1cc(F)cc2[nH]ncc12 [I-27] | < 10 nM | > 90% | < 10 nM | > 90% | –
11 | Cc1n[nH]c2cc(F)cc([C@@H](O)CNC(C)(C)C)c12 [I-61] | 10 to 100 nM | 70 to 90% | < 10 nM | 70 to 90% | –
12 | CC1(NC[C@H](O)c2cccc3[nH]nc(F)c23)CC1 [I-126] | < 10 nM | 70 to 90% | < 10 nM | – | > 90%
13 | N#Cc1cc([C@@H](O)CNC2CCC2)c2cn[nH]c2c1 [I-152] | 10 to 100 nM | 70 to 90% | 10 to 100 nM | > 90% | –
14 | CC(C)(C)NC[C@@H](O)c1ccc(N)nn1 [I-141] | > 1000 nM | > 90% | 100 to 1000 nM | – | > 90%
15 | Cc1n[nH]c2cccc([C@@H](O)CNCC(C)C)c12 [I-174] | > 1000 nM | 70 to 90% | 100 to 1000 nM | 50 to 70% | –
16 | COc1ccc(C[C@@H](C)NC[C@H](O)c2cccc3[nH]nc(F)c23)cc1 [I-18] | < 10 nM | > 90% | < 10 nM | > 90% | –
17 | CCC(CC)NC[C@H](O)c1cc(F)cc2[nH]ncc12 [I-44] | < 10 nM | > 90% | < 10 nM | – | 70 to 90%
18 | CCC(C)(CC)NC[C@H](O)c1cccc2[nH]nc(F)c12 [I-30] | < 10 nM | > 90% | < 10 nM | > 90% | –
19 | Cc1ncccc1[C@@H](O)CNC1CCC1 [I-187] | > 1000 nM | 70 to 90% | 100 to 1000 nM | – | 70 to 90%
20 | CC1(NC[C@H](O)c2cccc3[nH]ncc23)CCC1 [I-128] | < 10 nM | > 90% | < 10 nM | > 90% | –
21 | CC(C)[C@@H](C)NC[C@H](O)c1ccc(F)c2[nH]ncc12 [I-31] | 10 to 100 nM | 70 to 90% | < 10 nM | – | > 90%
22 | Cc1nc(N)ccc1[C@@H](O)CNC(C)(C)C [I-150] | 10 to 100 nM | > 90% | < 10 nM | – | > 90%
23 | CC(C)(C)C(C)(C)NC[C@H](O)c1cccc2[nH]ncc12 [I-7] | 100 to 1000 nM | > 90% | < 10 nM | – | > 90%
24 | CC1(NC[C@H](O)c2cc(C#N)cc3[nH]ncc23)CC1 [I-155] | 100 to 1000 nM | 70 to 90% | 10 to 100 nM | – | > 90%
